According to PubChem BioAssay AID328 (DTP/NCI, 2004):
Several values for one entry are separate records, joined by “and”; a condition that tells them apart may be missing. Equal entries are not always repeated. Inconclusive results and toxic doses are left out.

System: BDF1 mice, P388 leukemia ip, median survival T/C
Test: NCI In Vivo Anticancer Drug Screen. Data for tumor model P388 Leukemia (intraperitoneal) in B6D2F1 (BDF1) mice
Conditions: endpoint: median survival time, higher = longer survival
Outline: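 Mice carrying the transplantable tumour receive compound or vehicle. Survival is followed in each arm, and the treated measure is divided by the vehicle measure.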

[1] = dose: 12.5 mg/kg/injection, schedule: Q01DX009 (ip), vehicle: saline
[2] = dose: 25.0 mg/kg/injection, schedule: Q01DX009 (ip), vehicle: saline
[3] = dose: 50.0 mg/kg/injection, schedule: Q01DX001 (ip), vehicle: saline
[4] = dose: 100.0 mg/kg/injection, schedule: Q01DX009 (ip), vehicle: saline with Tween-80
[5] = dose: 200.0 mg/kg/injection, schedule: Q01DX009 (ip), vehicle: saline with Tween-80
[6] = dose: 100.0 mg/kg/injection, schedule: Q04DX003 (ip), vehicle: saline with Tween-80
[7] = dose: 100.0 mg/kg/injection, schedule: Q04DX003 (ip), vehicle: saline
[8] = dose: 50.0 mg/kg/injection, schedule: Q01DX009 (ip), vehicle: saline with Tween-80
[9] = dose: 25.0 mg/kg/injection, schedule: Q04DX003 (ip), vehicle: saline with Tween-80
[10] = dose: 50.0 mg/kg/injection, schedule: Q04DX003 (ip), vehicle: saline

In the case of O=NN(CCCl)C(=O)NC1CCCCC1, the T/C (dose: 2.4 mg/kg/injection, schedule: Q01DX009 (ip), vehicle: Klucel (hydroxypropylcellulose) (HPC)) is reported as 116 % of control, the T/C (dose: 3.6 mg/kg/injection, schedule: Q01DX009 (ip), vehicle: Klucel (hydroxypropylcellulose) (HPC)) is reported as 164 % of control and the T/C (dose: 4.0 mg/kg/injection, schedule: Q01DX009 (ip), vehicle: saline with Tween-80) is reported as 113 % of control. For the same molecule, the T/C (dose: 8.0 mg/kg/injection, schedule: Q01DX009 (ip), vehicle: saline with Tween-80) was 229 % of control, the T/C (dose: 12.5 mg/kg/injection, schedule: Q01DX009 (ip), vehicle: Klucel (hydroxypropylcellulose) (HPC)) was 153 % of control and the T/C [1] was 178 % of control. The T/C (dose: 16.0 mg/kg/injection, schedule: Q01DX009 (ip), vehicle: Klucel (hydroxypropylcellulose) (HPC)) was 249 % of control, the T/C (dose: 16.0 mg/kg/injection, schedule: Q01DX009 (ip), vehicle: saline with Tween-80) was 283 % of control and the T/C (dose: 25.0 mg/kg/injection, schedule: Q01DX001 (ip), vehicle: Klucel (hydroxypropylcellulose) (HPC)) was 220 % of control. For the same molecule, the T/C [2] was 228 % of control, the T/C (dose: 30.0 mg/kg/injection, schedule: Q01DX001 (ip), vehicle: saline) was 103 % of control and the T/C (dose: 32.0 mg/kg/injection, schedule: Q01DX009 (ip), vehicle: saline with Tween-80) was 179 % of control. The T/C (dose: 35.0 mg/kg/injection, schedule: Q01DX009 (ip), vehicle: Klucel (hydroxypropylcellulose) (HPC)) was 103 % of control, the T/C (dose: 40.0 mg/kg/injection, schedule: Q01DX001 (ip), vehicle: saline) was 548 % of control and 183 % of control and the T/C (dose: 50.0 mg/kg/injection, schedule: Q01DX001 (ip), vehicle: Klucel (hydroxypropylcellulose) (HPC)) was 113 % of control. For the same molecule, the T/C [3] was 174 % of control, the T/C (dose: 60.0 mg/kg/injection, schedule: Q01DX001 (oral), vehicle: carboxymethylcellulose (CMC)) was 526 % of control and 166 % of control and the T/C (dose: 64.0 mg/kg/injection, schedule: Q01DX009 (ip), vehicle: saline with Tween-80) was 88 % of control. For the same molecule, the T/C (dose: 70.0 mg/kg/injection, schedule: Q01DX001 (ip), vehicle: saline) was 256 % of control, the T/C (dose: 90.0 mg/kg/injection, schedule: Q01DX001 (oral), vehicle: carboxymethylcellulose (CMC)) was 210 % of control and 219 % of control and the T/C (dose: 100.0 mg/kg/injection, schedule: Q01DX001 (ip), vehicle: carboxymethylcellulose (CMC)) was 219 % of control. The T/C (dose: 135.0 mg/kg/injection, schedule: Q01DX001 (oral), vehicle: carboxymethylcellulose (CMC)) was 173 % of control, the T/C (dose: 150.0 mg/kg/injection, schedule: Q01DX001 (ip), vehicle: carboxymethylcellulose (CMC)) was 526 % of control and the T/C (dose: 200.0 mg/kg/injection, schedule: Q01DX001 (oral), vehicle: carboxymethylcellulose (CMC)) was 236 % of control.
With O=c1cc(CO)occ1O.O=c1cc(CO)occ1O.[O]=[V] the T/C (dose: 6.25 mg/kg/injection, schedule: Q01DX009 (ip), vehicle: saline) was 105 % of control, the T/C [1] was 94 % of control and the T/C [2] was 100 % of control.
CCOC(=O)CCCN(c1sc(C)c(-c2ccccc2)c1C(=O)OCC)S(=O)(=O)c1ccc(C)cc1 was tested, and the T/C [4] was 109 % of control and the T/C [5] was 90 % of control.
For ClC1=CCCCC1, the T/C (dose: 150.0 mg/kg/injection, schedule: Q01DX009 (ip), vehicle: saline) was 120 % of control, the T/C (dose: 225.0 mg/kg/injection, schedule: Q01DX009 (ip), vehicle: saline) was 115 % of control and the T/C (dose: 335.0 mg/kg/injection, schedule: Q01DX009 (ip), vehicle: saline) was 120 % of control.
With CC(=O)NCC(S)c1ccc(Cl)cc1 (configuration not stated) the T/C [6] was 118 % of control, the T/C (dose: 200.0 mg/kg/injection, schedule: Q04DX003 (ip), vehicle: saline with Tween-80) was 95 % of control and the T/C (dose: 400.0 mg/kg/injection, schedule: Q04DX003 (ip), vehicle: saline with Tween-80) was 90 % of control.
With [N-]=[N+]=NC(=O)C1(Br)CCC2c3ccccc3C([N+](=O)[O-])(C1)c1ccccc12 (configuration not stated) the T/C [7] was 95 % of control, the T/C (dose: 200.0 mg/kg/injection, schedule: Q04DX003 (ip), vehicle: saline) was 100 % of control and the T/C (dose: 400.0 mg/kg/injection, schedule: Q04DX003 (ip), vehicle: saline) was 109 % of control.
O=C1NN=C(c2ccc(Cl)cc2)CS1 was tested, and the T/C [8] was 103 % of control and the T/C [4] was 103 % of control.
For CN1CCN(C(=O)c2ccc(Cl)c(Cl)c2)CC1, the T/C (dose: 3.12 mg/kg/injection, schedule: Q01DX009 (ip), vehicle: saline with Tween-80) was 103 % of control, the T/C (dose: 6.25 mg/kg/injection, schedule: Q01DX009 (ip), vehicle: saline with Tween-80) was 99 % of control and the T/C (dose: 12.5 mg/kg/injection, schedule: Q01DX009 (ip), vehicle: saline with Tween-80) was 103 % of control. For the same molecule, the T/C (dose: 12.5 mg/kg/injection, schedule: Q04DX003 (ip), vehicle: saline with Tween-80) was 108 % of control, the T/C (dose: 25.0 mg/kg/injection, schedule: Q01DX009 (ip), vehicle: saline with Tween-80) was 88 % of control and the T/C [9] was 97 % of control. The T/C [8] was 99 % of control, the T/C (dose: 50.0 mg/kg/injection, schedule: Q04DX003 (ip), vehicle: saline with Tween-80) was 91 % of control and the T/C [4] was 105 % of control. The T/C [6] was 97 % of control.
For CC(C)OC(=S)SSc1nc2ccccc2s1, the T/C (dose: 9.37 mg/kg/injection, schedule: Q01DX009 (ip), vehicle: saline) was 115 % of control, the T/C (dose: 18.75 mg/kg/injection, schedule: Q01DX009 (ip), vehicle: saline) was 110 % of control and the T/C (dose: 75.0 mg/kg/injection, schedule: Q01DX009 (ip), vehicle: saline with Tween-80) was 112 % of control.
In the case of CCCCCCCC(=O)N/N=C(\CO)[C@]1(O)Cc2c(O)c3c(c(O)c2[C@@H](OC2CC(N)C(O)C(C)O2)C1)C(=O)c1c(OC)cccc1C3=O (some centres not stated), the T/C (dose: 0.78 mg/kg/injection, schedule: Q01DX009 (ip), vehicle: water) is reported as 114 % of control, the T/C (dose: 1.56 mg/kg/injection, schedule: Q01DX009 (ip), vehicle: water) is reported as 183 % of control and the T/C (dose: 3.12 mg/kg/injection, schedule: Q01DX009 (ip), vehicle: water) is reported as 106 % of control and 222 % of control. For the same molecule, the T/C (dose: 6.25 mg/kg/injection, schedule: Q01DX009 (ip), vehicle: water) was 163 % of control and 200 % of control, the T/C (dose: 12.5 mg/kg/injection, schedule: Q01DX009 (ip), vehicle: water) was 117 % of control and 204 % of control and the T/C (dose: 25.0 mg/kg/injection, schedule: Q01DX009 (ip), vehicle: water) was 104 % of control.
For O=C(c1ccccc1)N1C=CN(C(=O)c2ccccc2)C1c1ncc[nH]1, the T/C [8] was 105 % of control, the T/C [4] was 105 % of control and the T/C [5] was 106 % of control.
In the case of CNc1ccccc1O, the T/C [8] is reported as 102 % of control, the T/C [4] is reported as 98 % of control and the T/C [5] is reported as 95 % of control.
With CCOc1cc(C=Nc2cc(Cl)c(O)c(Cl)c2)ccc1N(CCCl)CCCl the T/C (dose: 16.0 mg/kg/injection, schedule: Q04DX003 (ip), vehicle: saline with Tween-80) was 154 % of control, the T/C (dose: 16.5 mg/kg/injection, schedule: Q04DX003 (ip), vehicle: saline with Tween-80) was 157 % of control and the T/C [9] was 173 % of control. For the same molecule, the T/C (dose: 37.5 mg/kg/injection, schedule: Q04DX003 (ip), vehicle: saline with Tween-80) was 207 % of control.
In the case of NC(=Nc1ccc(Cl)cc1)/N=C(/N)N1CCN(/C(N)=N/C(N)=Nc2ccc(Cl)cc2)CC1, the T/C [1] is reported as 120 % of control, the T/C (dose: 16.5 mg/kg/injection, schedule: Q01DX009 (ip), vehicle: saline) is reported as 116 % of control and the T/C (dose: 25.0 mg/kg/injection, schedule: Q01DX001 (ip), vehicle: saline) is reported as 104 % of control. The T/C (dose: 37.5 mg/kg/injection, schedule: Q01DX009 (ip), vehicle: saline) was 150 % of control, the T/C [3] was 113 % of control and the T/C [10] was 100 % of control. For the same molecule, the T/C (dose: 100.0 mg/kg/injection, schedule: Q01DX001 (ip), vehicle: saline) was 109 % of control, the T/C [7] was 115 % of control and the T/C (dose: 150.0 mg/kg/injection, schedule: Q01DX001 (ip), vehicle: Klucel (hydroxypropylcellulose) (HPC)) was 116 % of control.
For CNC(=O)OCc1c(COC(=O)NC)c(-c2ccc(Cl)cc2Cl)n2c1CCC2, the T/C (dose: 100.0 mg/kg/injection, schedule: Q01DX009 (ip), vehicle: other) was 158 % of control.
In the case of Oc1ccccc1OB(Oc1ccccc1O)N(CCCl)CCCl, the T/C (dose: 8.1 mg/kg/injection, schedule: Q01DX009 (ip), vehicle: Klucel (hydroxypropylcellulose) (HPC)) is reported as 122 % of control, the T/C (dose: 16.5 mg/kg/injection, schedule: Q04DX003 (ip), vehicle: saline) is reported as 86 % of control and the T/C (dose: 18.5 mg/kg/injection, schedule: Q01DX009 (ip), vehicle: Klucel (hydroxypropylcellulose) (HPC)) is reported as 170 % of control. For the same molecule, the T/C (dose: 24.75 mg/kg/injection, schedule: Q04DX003 (ip), vehicle: saline) was 150 % of control, the T/C (dose: 28.12 mg/kg/injection, schedule: Q01DX009 (ip), vehicle: Klucel (hydroxypropylcellulose) (HPC)) was 190 % of control and 195 % of control and the T/C (dose: 40.0 mg/kg/injection, schedule: Q01DX009 (ip), vehicle: Klucel (hydroxypropylcellulose) (HPC)) was 165 % of control. For the same molecule, the T/C (dose: 49.5 mg/kg/injection, schedule: Q04DX003 (ip), vehicle: saline) was 150 % of control and the T/C [10] was 119 % of control.
